Key:
[1] = test system: mTOR and Raptor on lysosomes; experiment: LysoIP quantitative DIA proteomics (LC/MS/MS) of lysosomes from HEK293T cells; type: cell-based, human; conditions: 1 mM LLOMe for 30 min
Protocol: Three groups of proteins are labeled (ESCRT components in green, autophagy factors in blue and stress granule components in purple). […] The dotted orange line indicates the significance cut-off (P<0.05). […] The significant increased proteins in LysoIP LC/MS/MS were analyzed by STRING functional protein association networks. […] Strength, Log 10(observed/expected) describes how large the enrichment effect is. […] TMEM192-2×FLAG, control. […] U20S cells Were treated with Earle's Balanced Salt Solution (EBSS), 4 mM LOMe, 2 mM LLOMe, 200 μM GPN, or 400 μg/mL silica for 30 min. White masks, algorithm-defined cell boundaries (primary objects); red masks, computer-identified G3BP1 puncta (target objects). […] U2OS cells Were treated with 2 mM LLOMe for 30 min and stained for endogenous G3BP1. Scale bar, 5 μm. […] Green masks, computer-identified G3BP1 puncta. […] Red masks, computer-identified Galectin-3 puncta. FIG. 1G Immunoblot analysis of eIF2α (S51) phosphorylation in U2OS cells treated with 2 mM LLOMe for 30 min and followed by 1 h washout. […] The level of phosphorylation of eIF2α (S51) is quantified based on three independent experiments. […] Scale bar, 5/10 μm. […] The level of ATF4 and phosphorylation of eIF2α (S51) and 4EBP1 (S65) are quantified based on three independent experiments. Ctrl, control (untreated cells). […]

[2] = test system: G3BP1 puncta (stress granules) in U2OS cells; experiment: HCM quantification of G3BP1 puncta (stress granule formation) in U2OS cells; type: cell-based, human
ATF4 = experiment: Immunoblot analysis of ATF4 in U2OS cells; type: cell-based, human; conditions: 2 mM LLOMe, indicated time points
[3] = test system: G3BP1+ SGs and lysosomes (LAMP2); experiment: HCM quantification of G3BP1+ SGs associated with lysosomes (LAMP2); type: cell-based; conditions: 30 min after exposure to LLOMe
Protocol: Do SGs induced by lysosomal damage associate with lysosomes? The inventors addressed this by imaging analysis. By confocal fluorescence microscopy, the majority of G3BP1-positive SGs formed during lysosomal damage were either independent of lysosomes or juxtaposed to lysosomes (FIG. 3SA). By HCM quantification, only 10% of G3BP1^+ SGs appeared associated with lysosomes (LAMP2) 30 min after exposure to lysosomal damaging agent LLOMe. The inventors then asked the question whether SGs formed in response to lysosomal damage initiate as a nidus on the lysosomal surface. Using live microscopy, the inventors observed that the majority of SGs Were forming in locations independent of lysosomes (FIG. 3SB).

mTOR = experiment: Immunoblot analysis of S6K1 (T389) phosphorylation in HeLa cells; type: cell-based, human; conditions: HeLa (WT) cells, 4 mM LLOMe for 30 min

COC(=O)[C@H](CC(C)C)NC(=O)[C@@H](N)CC(C)C [LLOMe, L-leucyl-L-leucine methyl ester]
mTOR and Raptor association with lysosomes (mass spectrometry) [1]: mTOR and Raptor dissociate from lysosomes
number of SGs upon LLOMe washout ([2]; 2 mM LLOMe 30 min followed by 1 h washout): reduction in the number of SGs
SG formation response (G3BP1 puncta) ([2]; agent alone for 30 min (2 mM LLOMe, 200 μM GPN, 400 μg/mL silica, 4 mM LOMe)): robust SG formation response
ATF4 expression (ATF4): increased ATF4 expression over time
G3BP1+ SGs associated with lysosomes (LAMP2) [3]: 10%
pT389 S6K levels (mTOR activity) (mTOR): drop in pT389 S6K levels

Reference: patent US20240409935A1, “Atg8ylation coordinates stress granule formation and mTOR inactivation in response to lysosomal damage” (priority 2023, published 2024)
